In PubChem BioAssay AID330 (DTP/NCI, 2004) one finds T/C data, which are given here for 17 compounds.

SMILES strings stand for the structures. Several values for one entry are separate records, joined by “and”; a condition that tells them apart may be missing. Equal values may be shown once. Toxic doses and inconclusive results are not listed.

In the test the test system is P388 leukemia ip, CD2F1 mice, survival T/C. The test can be described thus: NCI In Vivo Anticancer Drug Screen. Data for tumor model P388 Leukemia (intraperitoneal) in CD2F1 (CDF1) mice. Conditions: endpoint: median survival time, higher = longer survival. A digest of the protocol: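 Mice carrying the transplanted tumor received test compound or vehicle. Survival was recorded in each group, and the value is the treated-group measurement divided by that of the vehicle-treated control group.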

[1] abbreviates: dose: 50.0 mg/kg/injection, schedule: Q01DX005 (ip), vehicle: Klucel (hydroxypropylcellulose) (HPC).
[2] abbreviates: dose: 100.0 mg/kg/injection, schedule: Q01DX005 (ip), vehicle: Klucel (hydroxypropylcellulose) (HPC).
The mark [3] stands for this setting: dose: 200.0 mg/kg/injection, schedule: Q04DX003 (ip), vehicle: saline.
[4] abbreviates: dose: 400.0 mg/kg/injection, schedule: Q04DX003 (ip), vehicle: saline.

On to `CC(=O)Oc1c([N+](=O)[O-])cccc1[N+](=O)[O-]`, for which the T/C by setting is: (dose: 3.13 mg/kg/injection, schedule: Q01DX009 (ip), vehicle: distilled water + Tween-80) 111 % of control; (dose: 6.25 mg/kg/injection, schedule: Q01DX009 (ip), vehicle: clinical formulation) 100 % of control; (dose: 6.25 mg/kg/injection, schedule: Q01DX009 (ip), vehicle: distilled water + Tween-80) 100 % of control and 112 % of control; (dose: 12.5 mg/kg/injection, schedule: Q01DX009 (ip), vehicle: clinical formulation) 103 % of control; (dose: 12.5 mg/kg/injection, schedule: Q01DX009 (ip), vehicle: distilled water + Tween-80) 107 % of control; (dose: 25.0 mg/kg/injection, schedule: Q01DX009 (ip), vehicle: clinical formulation) 108 % of control. The T/C is 107 % of control (dose: 25.0 mg/kg/injection, schedule: Q01DX009 (ip), vehicle: distilled water + Tween-80); 109 % of control and 115 % of control (dose: 50.0 mg/kg/injection, schedule: Q01DX009 (ip), vehicle: distilled water + Tween-80); 96 % of control (dose: 100.0 mg/kg/injection, schedule: Q01DX009 (ip), vehicle: distilled water + Tween-80).

For `CCOC(=O)C(NC(N)=O)C(=O)OCC`, the T/C runs as follows: (dose: 25.0 mg/kg/injection, schedule: Q01DX009 (ip), vehicle: water) 89 % of control; (dose: 50.0 mg/kg/injection, schedule: Q01DX009 (ip), vehicle: water) 99 % of control; (dose: 100.0 mg/kg/injection, schedule: Q01DX009 (ip), vehicle: water) 100 % of control; (dose: 200.0 mg/kg/injection, schedule: Q01DX009 (ip), vehicle: water) 105 % of control; (dose: 400.0 mg/kg/injection, schedule: Q01DX009 (ip), vehicle: water) 91 % of control.

Take `CC1S(=O)(=O)OCCCOS1(=O)=O`: the T/C (dose: 12.5 mg/kg/injection, schedule: Q01DX005 (ip), vehicle: Klucel (hydroxypropylcellulose) (HPC)) is 119 % of control and the T/C (dose: 25.0 mg/kg/injection, schedule: Q01DX005 (ip), vehicle: Klucel (hydroxypropylcellulose) (HPC)) was 154 % of control.

`COc1cc2c(cc1OC)C(C)=NCC2`: the T/C is 104 % of control (dose: 25.0 mg/kg/injection, schedule: Q01DX001 (ip), vehicle: saline); 95 % of control (dose: 50.0 mg/kg/injection, schedule: Q01DX001 (ip), vehicle: saline); 94 % of control (dose: 100.0 mg/kg/injection, schedule: Q01DX001 (ip), vehicle: saline); 98 % of control (dose: 200.0 mg/kg/injection, schedule: Q01DX001 (ip), vehicle: saline).

Regarding `O=C1NNC(=O)C2(CCC(O)C2)c2ccncc21` (stereo unspecified), the T/C (dose: 3.75 mg/kg/injection, schedule: Q01DX005 (ip), vehicle: saline) is 105 % of control; the T/C (dose: 7.5 mg/kg/injection, schedule: Q01DX005 (ip), vehicle: saline) is 92 % of control; the T/C (dose: 15.0 mg/kg/injection, schedule: Q01DX005 (ip), vehicle: saline) was 96 % of control; the T/C (dose: 30.0 mg/kg/injection, schedule: Q01DX005 (ip), vehicle: saline) was 105 % of control.

Turning to `CC(=O)NN=Nc1ccc(C)cc1`, the T/C is, setting by setting: under setting [1], 105 % of control; under setting [2], 102 % of control.

Regarding `O=NNc1ccccn1`, the T/C runs as follows: (dose: 0.78 mg/kg/injection, schedule: Q01DX009 (ip), vehicle: saline) 106 % of control; (dose: 1.5 mg/kg/injection, schedule: Q01DX009 (ip), vehicle: saline) 100 % of control; (dose: 1.5 mg/kg/injection, schedule: Q01DX009 (ip), vehicle: water) 103 % of control; (dose: 1.56 mg/kg/injection, schedule: Q01DX005 (ip), vehicle: water) 103 % of control and 106 % of control and 112 % of control; (dose: 1.56 mg/kg/injection, schedule: Q01DX009 (ip), vehicle: saline + alcohol) 108 % of control; (dose: 1.59 mg/kg/injection, schedule: Q01DX009 (ip), vehicle: water) 119 % of control. The T/C runs as follows: (dose: 3.0 mg/kg/injection, schedule: Q01DX009 (ip), vehicle: saline) 118 % of control; (dose: 3.0 mg/kg/injection, schedule: Q01DX009 (ip), vehicle: water) 121 % of control; (dose: 3.12 mg/kg/injection, schedule: Q01DX009 (ip), vehicle: saline + alcohol) 123 % of control; (dose: 12.0 mg/kg/injection, schedule: Q01DX009 (ip), vehicle: water) 151 % of control and 163 % of control; (dose: 25.0 mg/kg/injection, schedule: Q01DX009 (ip), vehicle: saline + alcohol) 175 % of control.

With `CCOC(=O)c1cnc[nH]c1=O`, the T/C reads like this: (dose: 25.0 mg/kg/injection, schedule: Q04DX003 (ip), vehicle: saline with Tween-80) 99 % of control; (dose: 50.0 mg/kg/injection, schedule: Q04DX003 (ip), vehicle: saline with Tween-80) 100 % of control; (dose: 100.0 mg/kg/injection, schedule: Q04DX003 (ip), vehicle: saline with Tween-80) 97 % of control; (dose: 200.0 mg/kg/injection, schedule: Q04DX003 (ip), vehicle: saline with Tween-80) 97 % of control.

Consider `OCC(COCCCCCCCCCCCCCC1C=CCC1)OCCCCCCCCCCCCCC1C=CCC1` (stereo unspecified), for which the T/C by setting is: (dose: 100.0 mg/kg/injection, schedule: Q04DX003 (ip), vehicle: saline) 96 % of control; under setting [3], 89 % of control; under setting [4], 93 % of control.

For the compound `CO/N=C(\C(O)C(C)O)C(OC)C1Cc2cc3cc(OC4CC(OC(C)=O)C(OC5CC(O)C(OC)C(C)O5)C(C)O4)cc(O)c3c(O)c2C(=O)C1OC1CC(OC2CC(OC3CC(C)(O)C(OC(=O)C(C)C)C(C)O3)C(O)C(C)O2)C(O)C(C)O1` (stereo unspecified), the T/C is 116 % of control (dose: 0.13 mg/kg/injection, schedule: Q01DX005 (ip), vehicle: water); 116 % of control and 124 % of control (dose: 0.25 mg/kg/injection, schedule: Q01DX005 (ip), vehicle: water); 160 % of control (dose: 1.0 mg/kg/injection, schedule: Q01DX005 (ip), vehicle: water); 163 % of control (dose: 2.0 mg/kg/injection, schedule: Q01DX005 (ip), vehicle: water).

As to `O=NNc1ccncc1`, the T/C was 109 % of control (dose: 6.25 mg/kg/injection, schedule: Q01DX005 (ip), vehicle: saline); 122 % of control (dose: 12.5 mg/kg/injection, schedule: Q01DX005 (ip), vehicle: saline); 120 % of control (dose: 25.0 mg/kg/injection, schedule: Q01DX005 (ip), vehicle: saline).

For `C/C=C/Cc1nnc(C)c2c(C)[nH]nc12`, the T/C runs as follows: (dose: 50.0 mg/kg/injection, schedule: Q01DX009 (ip), vehicle: saline with Tween-80) 100 % of control; (dose: 100.0 mg/kg/injection, schedule: Q01DX009 (ip), vehicle: saline with Tween-80) 96 % of control; (dose: 200.0 mg/kg/injection, schedule: Q01DX009 (ip), vehicle: saline with Tween-80) 102 % of control.

Turning to `CC(=N\O)/C(C)=N/O.CC(=N\O)/C(C)=N/O.[Cl][Rh][Cl]`, the T/C under setting [3] is 100 % of control and the T/C under setting [4] is 95 % of control.

As to `CC1=CC(OC2C=C(C)C(=O)O2)OC1=O` (stereo unspecified), the T/C (dose: 100.0 mg/kg/injection, schedule: Q04DX002 (ip), vehicle: saline) is 100 % of control; the T/C (dose: 200.0 mg/kg/injection, schedule: Q04DX002 (ip), vehicle: saline) was 100 % of control; the T/C (dose: 400.0 mg/kg/injection, schedule: Q04DX002 (ip), vehicle: saline) is 104 % of control.

With `O=C(O)CNO`, the T/C reads like this: (dose: 50.0 mg/kg/injection, schedule: Q01DX009 (ip), vehicle: Klucel (hydroxypropylcellulose) (HPC)) 101 % of control; (dose: 100.0 mg/kg/injection, schedule: Q01DX009 (ip), vehicle: Klucel (hydroxypropylcellulose) (HPC)) 105 % of control; (dose: 200.0 mg/kg/injection, schedule: Q01DX009 (ip), vehicle: Klucel (hydroxypropylcellulose) (HPC)) 104 % of control; (dose: 400.0 mg/kg/injection, schedule: Q01DX009 (ip), vehicle: Klucel (hydroxypropylcellulose) (HPC)) 110 % of control.

For `O=C(Nc1ccc(Cl)c([N+](=O)[O-])c1)Nc1nc2ccccc2s1`, the T/C is, setting by setting: under setting [1], 98 % of control; under setting [2], 86 % of control; (dose: 200.0 mg/kg/injection, schedule: Q01DX005 (ip), vehicle: Klucel (hydroxypropylcellulose) (HPC)) 87 % of control.

As for `COc1ccc(C2=NCC2(Cl)Cl)cc1`, the T/C was 97 % of control (dose: 12.5 mg/kg/injection, schedule: Q01DX009 (ip), vehicle: other); 95 % of control (dose: 25.0 mg/kg/injection, schedule: Q01DX009 (ip), vehicle: other); 105 % of control (dose: 50.0 mg/kg/injection, schedule: Q01DX009 (ip), vehicle: other); 96 % of control (dose: 100.0 mg/kg/injection, schedule: Q01DX009 (ip), vehicle: other); 99 % of control (dose: 200.0 mg/kg/injection, schedule: Q01DX009 (ip), vehicle: other).
